# Test system: BT-474 xenograft tumours
# Experiment: Cleaved caspase-3 immunohistochemistry of xenograft tumours
# Type: in vivo, mice
# Conditions: end of treatment, 4 h after last dosage
# Experimental: Figure 8 Dual treatment with Akt and SGK inhibitors reduces tumour growth in BT‐474 xenograft model • BT‐474 cells were treated for the indicated times with 0.3 μM MK‐2206. The cell lysates were analysed by immunoblot using the indicated antibodies. • BT‐474c cells were treated with inhibitors as indicated either as monotherapy or in combination and cell confluency measured on the Incucyte ZOOM every 4 h for up to 4 weeks. • BT‐474 cells were injected subcutaneously into athymic Foxn1 ^nu nude mice. […] The tumour volume was measured twice a week. Tumour growth is represented as the fold change mean ± SEM. • All mice were weighed at the end of the treatments. […] Apoptotic cells were counted in 25 fields per condition (left panel) and quantified as clCasp3‐positive cells/field (right panel). […] Six different tumours were analysed from each treatment group and each line represents one tumour sample. […]
# Experiments involving mice were in accordance with Institutional Guidelines of Memorial Sloan Kettering Cancer Center (Protocol number 12‐10‐019). […] When tumours reached a volume of ~150 mm^3, mice were randomised, treated, and tumours were measured twice a week. Tumour volume was determined using the following formula: (length × width^2) ÷ 2. […]
structure (smiles),measurement,value
NC1(c2ccc(-c3nc4ccn5c(=O)[nH]nc5c4cc3-c3ccccc3)cc2)CCC1 [MK-2206],number of apoptotic (cleaved caspase-3 positive) cells in tumours,increased number of apoptotic cells

# Reference: publication PMC5007552, “The hVps34‐SGK3 pathway alleviates sustained PI3K/Akt inhibition by stimulating mTORC1 and tumour growth” (The EMBO Journal, 2016)
